Experimental data taken from ChEMBL document CHEMBL4665869, “New thiazolopyrimidine as anticancer agents: Synthesis, biological evaluation, DNA binding, molecular modeling and ADMET study” (Bioorg Med Chem Lett, 2020).
Values after ≈ are worked out from the molar mass of the structure shown.

Key:
ACHN = experiment: Growth inhibition of human ACHN cells at 10 uM relative to control; assay type: functional; settings: read-out: GI
LOX IMVI = experiment: Growth inhibition of human LOX IMVI cells at 10 uM relative to control; assay type: functional; settings: read-out: GI
CAKI-1 = experiment: Growth inhibition of human CAKI-1 cells at 10 uM relative to control; assay type: functional; settings: read-out: GI
DU-145 = experiment: Growth inhibition of human DU-145 cells at 10 uM relative to control; assay type: functional; settings: read-out: GI
T47D = experiment: Growth inhibition of human T47D cells at 10 uM relative to control; assay type: functional; settings: read-out: GI
NCI/ADR-RES = experiment: Growth inhibition of human NCI/ADR-RES cells at 10 uM relative to control; assay type: functional; settings: read-out: GI
TK-10 = experiment: Growth inhibition of human TK-10 cells at 10 uM relative to control; assay type: functional; settings: read-out: GI
OVCAR-4 = experiment: Growth inhibition of human OVCAR-4 cells at 10 uM relative to control; assay type: functional; settings: read-out: GI
SR = experiment: Growth inhibition of human SR cells at 10 uM relative to control; assay type: functional; settings: read-out: GI
HOP-62 = experiment: Growth inhibition of human HOP-62 cells at 10 uM relative to control; assay type: functional; settings: read-out: GI
A498 = experiment: Growth inhibition of human A498 cells at 10 uM relative to control; assay type: functional; settings: read-out: GI
SK-MEL-2 = experiment: Growth inhibition of human SK-MEL-2 cells at 10 uM relative to control; assay type: functional; settings: read-out: GI
IGROV-1 = experiment: Growth inhibition of human IGROV-1 cells at 10 uM relative to control; assay type: functional; settings: read-out: GI
RXF 393 = experiment: Growth inhibition of human RXF 393 cells at 10 uM relative to control; assay type: functional; settings: read-out: GI
PC-3 = experiment: Growth inhibition of human PC-3 cells at 10 uM relative to control; assay type: functional; settings: read-out: GI
NCI-H322M = experiment: Growth inhibition of human NCI-H322M cells at 10 uM relative to control; assay type: functional; settings: read-out: GI
COLO 205 = experiment: Growth inhibition of human COLO 205 cells at 10 uM relative to control; assay type: functional; settings: read-out: GI
SF-539 = experiment: Growth inhibition of human SF-539 cells at 10 uM relative to control; assay type: functional; settings: read-out: GI
RPMI-8226 = experiment: Growth inhibition of human RPMI-8226 cells at 10 uM relative to control; assay type: functional; settings: read-out: GI
A549 = experiment: Growth inhibition of human A549 cells at 10 uM relative to control; assay type: functional; settings: read-out: GI
KM12 = experiment: Growth inhibition of human KM12 cells at 10 uM relative to control; assay type: functional; settings: read-out: GI
SNB-19 = experiment: Growth inhibition of human SNB-19 cells at 10 uM relative to control; assay type: functional; settings: read-out: GI
OVCAR-5 = experiment: Growth inhibition of human OVCAR-5 cells at 10 uM relative to control; assay type: functional; settings: read-out: GI
U-251 = experiment: Growth inhibition of human U-251 cells at 10 uM relative to control; assay type: functional; settings: read-out: GI
NCI-H23 = experiment: Growth inhibition of human NCI-H23 cells at 10 uM relative to control; assay type: functional; settings: read-out: GI
HL-60(TB) = experiment: Growth inhibition of human HL-60(TB) cells at 10 uM relative to control; assay type: functional; settings: read-out: GI
MDA-MB-231 = experiment: Growth inhibition of human MDA-MB-231 cells at 10 uM relative to control; assay type: functional; settings: read-out: GI
M14 = experiment: Growth inhibition of human M14 cells at 10 uM relative to control; assay type: functional; settings: read-out: GI
SK-MEL-28 = experiment: Growth inhibition of human SK-MEL-28 cells at 10 uM relative to control; assay type: functional; settings: read-out: GI
SK-OV-3 = experiment: Growth inhibition of human SK-OV-3 cells at 10 uM relative to control; assay type: functional; settings: read-out: GI
MOLT-4 = experiment: Growth inhibition of human MOLT-4 cells at 10 uM relative to control; assay type: functional; settings: read-out: GI
CCRF-CEM = experiment: Growth inhibition of human CCRF-CEM cells at 10 uM relative to control; assay type: functional; settings: read-out: GI
SK-MEL-5 = experiment: Growth inhibition of human SK-MEL-5 cells at 10 uM relative to control; assay type: functional; settings: read-out: GI
HOP-92 = experiment: Growth inhibition of human HOP-92 cells at 10 uM relative to control; assay type: functional; settings: read-out: GI
NCI-H460 = experiment: Growth inhibition of human NCI-H460 cells at 10 uM relative to control; assay type: functional; settings: read-out: GI
DNA = experiment: Displacement of methyl green from DNA (unknown origin) assessed as DNA intercalation after 24 hrs by colorimetric assay; assay type: nucleic-acid assay
K562 = experiment: Growth inhibition of human K562 cells at 10 uM relative to control; assay type: functional; settings: read-out: GI
HCT-15 = experiment: Growth inhibition of human HCT-15 cells at 10 uM relative to control; assay type: functional; settings: read-out: GI
UACC-257 = experiment: Growth inhibition of human UACC-257 cells at 10 uM relative to control; assay type: functional; settings: read-out: GI
Hs-578T = experiment: Growth inhibition of human Hs-578T cells at 10 uM relative to control; assay type: functional; settings: read-out: GI
SW-620 = experiment: Growth inhibition of human SW-620 cells at 10 uM relative to control; assay type: functional; settings: read-out: GI
MDA-MB-435 = experiment: Growth inhibition of human MDA-MB-435 cells at 10 uM relative to control; assay type: functional; settings: read-out: GI
SNB-75 = experiment: Growth inhibition of human SNB-75 cells at 10 uM relative to control; assay type: functional; settings: read-out: GI
SF-295 = experiment: Growth inhibition of human SF-295 cells at 10 uM relative to control; assay type: functional; settings: read-out: GI
NCI-H226 = experiment: Growth inhibition of human NCI-H226 cells at 10 uM relative to control; assay type: functional; settings: read-out: GI
MCF7 = experiment: Growth inhibition of human MCF7 cells at 10 uM relative to control; assay type: functional; settings: read-out: GI
786-0 = experiment: Growth inhibition of human 786-0 cells at 10 uM relative to control; assay type: functional; settings: read-out: GI
Malme-3M = experiment: Growth inhibition of human Malme-3M cells at 10 uM relative to control; assay type: functional; settings: read-out: GI
HCC 2998 = experiment: Growth inhibition of human HCC 2998 cells at 10 uM relative to control; assay type: functional; settings: read-out: GI
UACC-62 = experiment: Growth inhibition of human UACC-62 cells at 10 uM relative to control; assay type: functional; settings: read-out: GI
BT-549 = experiment: Growth inhibition of human BT-549 cells at 10 uM relative to control; assay type: functional; settings: read-out: GI
MDA-MB-468 = experiment: Growth inhibition of human MDA-MB-468 cells at 10 uM relative to control; assay type: functional; settings: read-out: GI
UO-31 = experiment: Growth inhibition of human UO-31 cells at 10 uM relative to control; assay type: functional; settings: read-out: GI
HT-29 = experiment: Growth inhibition of human HT-29 cells at 10 uM relative to control; assay type: functional; settings: read-out: GI
SN12C = experiment: Growth inhibition of human SN12C cells at 10 uM relative to control; assay type: functional; settings: read-out: GI
OVCAR-8 = experiment: Growth inhibition of human OVCAR-8 cells at 10 uM relative to control; assay type: functional; settings: read-out: GI
NCI-H522 = experiment: Growth inhibition of human NCI-H522 cells at 10 uM relative to control; assay type: functional; settings: read-out: GI
SF-268 = experiment: Growth inhibition of human SF-268 cells at 10 uM relative to control; assay type: functional; settings: read-out: GI
HCT-116 = experiment: Growth inhibition of human HCT-116 cells at 10 uM relative to control; assay type: functional; settings: read-out: GI

## CCOC(=O)C1=CSC2=NC(/C=C/c3cc(OC)c(OC)c(OC)c3)=CC(c3cc(OC)c(OC)c(OC)c3)N12 (centres undefined)
ACHN
  inhibition of growth at 10 µM: < 10%
LOX IMVI
  inhibition of growth at 10 µM: 29.7%
CAKI-1
  inhibition of growth at 10 µM: < 10%
DU-145
  inhibition of growth at 10 µM: < 10%
T47D
  inhibition of growth at 10 µM: < 10%
NCI/ADR-RES
  inhibition of growth at 10 µM: < 10%
TK-10
  inhibition of growth at 10 µM: < 10%
OVCAR-4
  inhibition of growth at 10 µM: 12.5%
SR
  inhibition of growth at 10 µM: 59%
HOP-62
  inhibition of growth at 10 µM: < 10%
A498
  inhibition of growth at 10 µM: < 10%
SK-MEL-2
  inhibition of growth at 10 µM: < 10%
IGROV-1
  inhibition of growth at 10 µM: < 10%
RXF 393
  inhibition of growth at 10 µM: < 10%
PC-3
  inhibition of growth at 10 µM: 21.1%
NCI-H322M
  inhibition of growth at 10 µM: < 10%
COLO 205
  inhibition of growth at 10 µM: < 10%
SF-539
  inhibition of growth at 10 µM: < 10%
RPMI-8226
  inhibition of growth at 10 µM: 18%
A549
  inhibition of growth at 10 µM: < 10%
KM12
  inhibition of growth at 10 µM: 22.7%
SNB-19
  inhibition of growth at 10 µM: < 10%
OVCAR-5
  inhibition of growth at 10 µM: < 10%
U-251
  inhibition of growth at 10 µM: < 10%
NCI-H23
  inhibition of growth at 10 µM: < 10%
HL-60(TB)
  inhibition of growth at 10 µM: < 10%
MDA-MB-231
  inhibition of growth at 10 µM: 14.5%
M14
  inhibition of growth at 10 µM: < 10%
SK-MEL-28
  inhibition of growth at 10 µM: < 10%
SK-OV-3
  inhibition of growth at 10 µM: < 10%
MOLT-4
  inhibition of growth at 10 µM: 25.1%
CCRF-CEM
  inhibition of growth at 10 µM: 69.3%
SK-MEL-5
  inhibition of growth at 10 µM: 12%
HOP-92
  inhibition of growth at 10 µM: < 10%
NCI-H460
  inhibition of growth at 10 µM: < 10%
DNA
  IC50: 43.92 µg/mL (≈ 77.2 µM)
K562
  inhibition of growth at 10 µM: 35.7%
HCT-15
  inhibition of growth at 10 µM: 35%
UACC-257
  inhibition of growth at 10 µM: 17.2%
Hs-578T
  inhibition of growth at 10 µM: < 10%
SW-620
  inhibition of growth at 10 µM: 13.4%
MDA-MB-435
  inhibition of growth at 10 µM: < 10%
SNB-75
  inhibition of growth at 10 µM: 18.4%
SF-295
  inhibition of growth at 10 µM: < 10%
NCI-H226
  inhibition of growth at 10 µM: < 10%
MCF7
  inhibition of growth at 10 µM: 28.9%
786-0
  inhibition of growth at 10 µM: < 10%
Malme-3M
  inhibition of growth at 10 µM: < 10%
HCC 2998
  inhibition of growth at 10 µM: < 10%
UACC-62
  inhibition of growth at 10 µM: 18%
BT-549
  inhibition of growth at 10 µM: < 10%
MDA-MB-468
  inhibition of growth at 10 µM: < 10%
UO-31
  inhibition of growth at 10 µM: 13.7%
HT-29
  inhibition of growth at 10 µM: 13%
SN12C
  inhibition of growth at 10 µM: < 10%
OVCAR-8
  inhibition of growth at 10 µM: 32%
NCI-H522
  inhibition of growth at 10 µM: 47.8%
SF-268
  inhibition of growth at 10 µM: < 10%
HCT-116
  inhibition of growth at 10 µM: 44.4%
